Reference: ChEMBL document CHEMBL5034015, “Structure-Based Optimization of 3-Phenyl-N-(2-(3-phenylureido)ethyl)thiophene-2-sulfonamide Derivatives as Selective Mcl-1 Inhibitors” (J Med Chem, 2021)
Calls of active or inactive are those of the source. The rule behind the calls is not given here.

Columns and labels:
[1] = target: T1, Bcl-2-like protein 1 (Homo sapiens, UniProt Q07817); assay: Inhibition of biotinylated Bim BH3 peptide binding to GST-tagged human Bcl-xl expressed in Escherichia coli BL21 (DE3) incubated for 1 hr by ELISA
[2] = target: Induced myeloid leukemia cell differentiation protein Mcl-1 (Homo sapiens, UniProt Q07820); assay: Binding affinity to full length human MCL1 expressed in Escherichia coli BL21 (DE3) at 100 uM preincubated for 30 mins followed by 5-FAM-QEDIIIINIARHLAQVGDSMD-RSIPPG tracer addition and measured after 20 mins by fluorescence polarization assay relative to control; conditions: time 50.0 min
[3] = tested on: HeLa; assay: cells; conditions: Homo sapiens, 48 h
Description: Cytotoxicity against human HeLa cells assessed as inhibition of cell growth incubated for 48 hrs by CCK8 assay

[4] = tested on: RS4-11; assay: cells; conditions: Homo sapiens, RS4-11, 48 h
Description: Cytotoxicity against human RS4-11 cells assessed as inhibition of cell growth incubated for 48 hrs by CCK8 assay

[5] = tested on: HL-60; assay: Cytotoxicity against human HL-60 cells assessed as cell viability at 20 uM incubated for 48 hrs by CCK8 assay relative to control; type: functional; conditions: read-out: Activity
[6] = target: T1, Bcl-2-like protein 1; assay: Binding affinity to full length human Bcl-xl expressed in Escherichia coli BL21 (DE3) at 100 uM preincubated for 30 mins followed by 5-FAM-QEDIIIINIARHLAQVGDSMD-RSIPPG tracer addition and measured after 20 mins by fluorescence polarization assay relative to control; conditions: time 50.0 min
[7] = Cytotoxicity against HEK293T cells assessed as cell viability at 20 uM incubated for 48 hrs by CCK8 assay relative to control; type: cell-based, HEK-293T; conditions: human, read-out: Activity
[8] = target: T2, Apoptosis regulator Bcl-2 (Homo sapiens, UniProt P10415); assay: Binding affinity to full length human Bcl-2 expressed in Escherichia coli BL21 (DE3) at 100 uM preincubated for 30 mins followed by 5-FAM-QEDIIIINIARHLAQVGDSMD-RSIPPG tracer addition and measured after 20 mins by fluorescence polarization assay relative to control; conditions: time 50.0 min
[9] = tested on: RS4-11; assay: Cytotoxicity against human RS4-11 cells assessed as cell viability at 20 uM incubated for 48 hrs by CCK8 assay relative to control; type: functional; conditions: read-out: Activity
[10] = tested on: HeLa; assay: Cytotoxicity against human HeLa cells assessed as cell viability at 20 uM incubated for 48 hrs by CCK8 assay relative to control; type: functional; conditions: read-out: Activity
[11] = target: T1, Bcl-2-like protein 1; assay: Binding affinity to full length human Bcl-xl expressed in Escherichia coli BL21 (DE3) at up to 100 uM preincubated for 30 mins followed by 5-FAM-QEDIIIINIARHLAQVGDSMD-RSIPPG tracer addition and measured after 20 mins by fluorescence polarization assay; conditions: dose microM <=100, time 50.0 min
[12] = tested on: MCF7; assay: Inhibition of Bcl-2/Bim interaction in human MCF7 cells assessed as disruption of Bcl-2/Bim complex at 10 uM measured after 24 hrs by co-immunoprecipitation based western blot analysis relative to control; type: cell-based
[13] = tested on: RS4-11; assay: Induction of apoptosis in human RS4-11 cells assessed as necrotic cells at 20 uM measured after 24 hrs by Annexin V/7-AAD and MitoSense Red staining based flow cytometry analysis relative to control (reference value: 1.11 %); type: functional
[14] = tested on: RS4-11; assay: Induction of apoptosis in human RS4-11 cells assessed as increase in cleaved caspase 3 expression incubated for 48 hrs by western blot analysis; type: functional, cell-based
[15] = tested on: RS4-11; assay: Induction of apoptosis in human RS4-11 cells assessed as late apoptotic cells at 20 uM measured after 24 hrs by Annexin V/7-AAD and MitoSense Red staining based flow cytometry analysis relative to control (reference value: 0.99 %); type: functional
[16] = tested on: HEK-293T; assay: Cytotoxicity against HEK293T cells assessed as reduction in cell viability incubated for 48 hrs by CCK8 assay; conditions: Homo sapiens
[17] = tested on: RS4-11; assay: Induction of apoptosis in human RS4-11 cells assessed as increase in cleaved PARP expression incubated for 48 hrs by western blot analysis; type: functional, cell-based
[18] = tested on: RS4-11; assay: Induction of apoptosis in human RS4-11 cells assessed as increase in cleaved caspase 9 expression incubated for 48 hrs by western blot analysis; type: functional, cell-based
[19] = target: T2, Apoptosis regulator Bcl-2; assay: Binding affinity to full length human Bcl-2 expressed in Escherichia coli BL21 (DE3) at up to 100 uM preincubated for 30 mins followed by 5-FAM-QEDIIIINIARHLAQVGDSMD-RSIPPG tracer addition and measured after 20 mins by fluorescence polarization assay; conditions: dose microM <=100, time 50.0 min
[20] = tested on: RS4-11; assay: Induction of apoptosis in human RS4-11 cells assessed as viable cells at 20 uM measured after 24 hrs by Annexin V/7-AAD and MitoSense Red staining based flow cytometry analysis relative to control (reference value: 94.15 %); type: functional; conditions: read-out: Activity
[21] = tested on: HL-60; assay: cells; conditions: Homo sapiens, HL-60, 48 h
Description: Cytotoxicity against human HL-60 cells assessed as inhibition of cell growth incubated for 48 hrs by CCK8 assay

[22] = tested on: RS4-11; assay: Induction of apoptosis in human RS4-11 cells assessed as early apoptotic cells at 20 uM measured after 24 hrs by Annexin V/7-AAD and MitoSense Red staining based flow cytometry analysis relative to control (reference value: 3.75 %); type: functional
[23] = target: T1, Bcl-2-like protein 1; assay: Inhibition of FITC-labeled BH3 peptide binding to Bcl-xl (unknown origin) expressed in Escherichia coli BL21 (DE3) incubated for 0.5 hrs by TR-FRET assay

T1 sequence (Q07817 whole entry): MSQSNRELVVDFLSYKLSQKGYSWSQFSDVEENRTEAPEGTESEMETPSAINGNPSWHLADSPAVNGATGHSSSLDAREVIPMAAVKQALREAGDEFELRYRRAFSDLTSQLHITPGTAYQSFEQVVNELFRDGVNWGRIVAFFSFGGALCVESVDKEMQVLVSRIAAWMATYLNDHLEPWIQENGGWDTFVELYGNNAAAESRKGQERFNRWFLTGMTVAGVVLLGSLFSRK
T2 sequence (P10415 whole entry): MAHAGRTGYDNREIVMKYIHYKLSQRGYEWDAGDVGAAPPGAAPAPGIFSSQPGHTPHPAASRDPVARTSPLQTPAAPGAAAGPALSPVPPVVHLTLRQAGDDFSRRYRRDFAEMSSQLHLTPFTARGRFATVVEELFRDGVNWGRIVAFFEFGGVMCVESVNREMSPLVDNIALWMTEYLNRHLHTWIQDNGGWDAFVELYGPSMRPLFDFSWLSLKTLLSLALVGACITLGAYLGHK
Induced myeloid leukemia cell differentiation protein Mcl-1, sequence (Q07820 whole entry): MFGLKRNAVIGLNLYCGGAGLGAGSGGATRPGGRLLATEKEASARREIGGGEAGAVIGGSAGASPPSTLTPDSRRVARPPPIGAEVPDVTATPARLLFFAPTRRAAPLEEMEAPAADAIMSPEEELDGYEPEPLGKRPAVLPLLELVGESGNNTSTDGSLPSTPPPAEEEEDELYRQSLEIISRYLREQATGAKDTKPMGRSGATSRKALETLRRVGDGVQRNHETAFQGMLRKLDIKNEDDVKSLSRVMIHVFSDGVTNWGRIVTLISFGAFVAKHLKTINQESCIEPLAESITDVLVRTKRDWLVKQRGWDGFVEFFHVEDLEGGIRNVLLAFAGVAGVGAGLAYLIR

SMILES: O=C(c1ccccc1O)c1[nH]c(Cl)c(Cl)c1-n1c(C(=O)c2ccccc2O)cc(Cl)c1Cl
- IC50 [1]: > 80 µM

SMILES: COc1ccc(Oc2ccccc2-c2ccsc2S(=O)(=O)N2CCN(C(=S)Nc3cc(C(F)(F)F)cc(C(F)(F)F)c3)CC2)cc1OC
- inhibition [2]: 66%
- IC50 [3]: > 50 µM
- IC50 [4]: > 50 µM
- viability at 20 µM [5]: 38%
- inhibition [6]: 29%
- viability at 48 h, 20 µM [7]: 42%
- inhibition [8]: 25%

SMILES: O=C(Nc1cc(C(F)(F)F)cc(C(F)(F)F)c1)N1CCN(S(=O)(=O)c2sccc2-c2ccccc2Oc2ccc(O)c(O)c2)CC1
- inhibition [2]: 47%
- viability at 20 µM [5]: 15%
- inhibition [6]: -8%
- viability at 20 µM [9]: 10%
- viability at 48 h, 20 µM [7]: 29%
- viability at 20 µM [10]: 20%
- inhibition [8]: 7%

SMILES: COc1ccc(Oc2ccccc2-c2ccsc2S(=O)(=O)NCCNC(=S)Nc2cc(C(F)(F)F)cc(C(F)(F)F)c2)cc1OC
- IC50 [3]: 6.4 µM
- Activity [11]: inactive
- IC50 [4]: 3.3 µM
- inhibition [12]: 20%
- Activity [13]: 0.26%
- Activity [14]: Dose-Dependent Effect
- Activity [15]: 93.97%
- IC50 [16]: 6.8 µM
- Activity [17]: Dose-Dependent Effect
- Activity [18]: Dose-Dependent Effect
- Activity [19]: inactive
- viability at 20 µM [20]: 2.6%
- IC50 [21]: 2.8 µM
- Activity [22]: 3.1%

SMILES: Cc1cc(OCCCc2c3n(c4c(-c5c(C)nn(C)c5C)c(Cl)ccc24)CCCN(c2cc(C(=O)O)c4ccn(C)c4c2)C3=O)cc(C)c1Cl
- Ki [23]: > 10 µM
